For 15 molecules, drug sensitivity score results are on record in the supplement of paper PMC11616607.

For one experiment, the system named is OV90. The experiment can be described thus: drug sensitivity score (DSS) from 5-point dose-response viability curve (DSS (area-under-curve based score)); higher = more sensitive (stronger growth inhibition or killing); extreme values may be limits of the assay. The following applies: exposure time: 72 h; concentration range: 5 concentrations over 10,000-fold range. Summed up: (§1)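 For the drug sensitivity score, obtained per cell line and drug in Breeze software, larger values mean greater sensitivity. No response corresponds to a score of zero. Ovarian cancer and normal ovarian cells were seeded at 1,500 per well into 384-well plates already holding acoustically dispensed drugs (Echo 550, DMSO or water, five concentrations over a 10,000-fold range) and incubated 3 days at 37°C, 5% CO2. CellTiter-Glo luminescence on a PHERAstar FS gave the viability readout.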
For `COc1cc(N2CCN(C)CC2)ccc1Nc1nccc(-c2cn(C)c3cnccc23)n1` [AZ191], the drug sensitivity score is 5.9.
Molecule `FC(F)(F)c1ccc(CNc2ccc(Cc3c[nH]c4ncc(Cl)cc34)cn2)cn1` [Pexidartinib] had a drug sensitivity score of 0.7.
`CNC(=O)c1cc(Oc2ccc(NC(=O)Nc3ccc(Cl)c(C(F)(F)F)c3)c(F)c2)ccn1` [Regorafenib] had a drug sensitivity score of 7.9.
For the molecule `C[C@@H]1CN(Cc2ccc(F)cc2)[C@@H](C)CN1C(=O)c1cc2c(C(=O)C(=O)N(C)C)cn(C)c2cc1Cl` [Talmapimod], the drug sensitivity score amounted to 0.
With `COc1cc([C@@H]2c3cc4c(cc3[C@@H](O[C@@H]3O[C@@H]5CO[C@@H](c6cccs6)O[C@H]5[C@H](O)[C@H]3O)[C@H]3COC(=O)[C@H]23)OCO4)cc(OC)c1O` [Teniposide], the drug sensitivity score was found to be 0.
For `COc1cc2ncnc(Nc3ccc(F)c(Cl)c3)c2cc1NC(=O)/C=C/CN1CCCCC1` [Dacomitinib], the drug sensitivity score was 0.1.
In the case of `CCOCc1nc2c(N)nc3ccccc3c2n1CC(C)(C)O` [Resiquimod], the drug sensitivity score is 0.
With `Cc1ccc(C(=O)N(CCCN)[C@@H](c2oc3cc(Cl)ccc3c(=O)c2Cc2ccccc2)C(C)C)cc1`, the drug sensitivity score amounted to 6.4.
In turn, `CN1CCC(CNc2ccc3ncc(-c4cccc(OC(F)(F)F)c4)n3n2)CC1` [SGI-1776] came in with a drug sensitivity score of 5.6.
As for `Cc1ccc(-c2cc(C(F)(F)F)nn2-c2ccc(S(N)(=O)=O)cc2)cc1` [Celecoxib], the drug sensitivity score came to 0.
Still for that read-out and setting: to `Oc1nc(-c2ccc(C(F)(F)F)cc2)nc2c1CSCC2` [XAV-939] belongs 0; to `COc1cc(Nc2ncc(F)c(Nc3ccc4c(n3)NC(=O)C(C)(C)O4)n2)cc(OC)c1OC` [Tamatinib], 0.
`Nc1nc(Cl)nc2c1ncn2[C@H]1C[C@H](O)[C@@H](CO)O1` [Cladribine] gave a drug sensitivity score of 1.6.
Consider `O=S(=O)(c1cccc2c(O)nccc12)N1CCCNCC1` [Hydroxyfasudil], for which the drug sensitivity score was 0.
`Nc1nc(Cl)nc2c1ncn2[C@@H]1O[C@H](CO)[C@@H](O)[C@@H]1F` [Clofarabine] had a drug sensitivity score of 11.9.

The test system of the next experiment is OVCAR8. Described as above. The conditions noted are these: exposure time: 72 h; concentration range: 5 concentrations over 10,000-fold range. Summed up:
as §1
`COc1cc(N2CCN(C)CC2)ccc1Nc1nccc(-c2cn(C)c3cnccc23)n1` [AZ191] showed a drug sensitivity score of 2.2.
On the same count and under the same terms, to `FC(F)(F)c1ccc(CNc2ccc(Cc3c[nH]c4ncc(Cl)cc34)cn2)cn1` [Pexidartinib] belongs 1.8; to `CNC(=O)c1cc(Oc2ccc(NC(=O)Nc3ccc(Cl)c(C(F)(F)F)c3)c(F)c2)ccn1` [Regorafenib], 4.1.
For `C[C@@H]1CN(Cc2ccc(F)cc2)[C@@H](C)CN1C(=O)c1cc2c(C(=O)C(=O)N(C)C)cn(C)c2cc1Cl` [Talmapimod], the drug sensitivity score is 0.
Still for that read-out and setting: to `COc1cc([C@@H]2c3cc4c(cc3[C@@H](O[C@@H]3O[C@@H]5CO[C@@H](c6cccs6)O[C@H]5[C@H](O)[C@H]3O)[C@H]3COC(=O)[C@H]23)OCO4)cc(OC)c1O` [Teniposide] belongs 0.
Molecule `COc1cc2ncnc(Nc3ccc(F)c(Cl)c3)c2cc1NC(=O)/C=C/CN1CCCCC1` [Dacomitinib] gave a drug sensitivity score of 2.1.
`CCOCc1nc2c(N)nc3ccccc3c2n1CC(C)(C)O` [Resiquimod] had a drug sensitivity score of 0.
Same read-out and setting: to `Cc1ccc(C(=O)N(CCCN)[C@@H](c2oc3cc(Cl)ccc3c(=O)c2Cc2ccccc2)C(C)C)cc1` belongs 2.9; to `CN1CCC(CNc2ccc3ncc(-c4cccc(OC(F)(F)F)c4)n3n2)CC1` [SGI-1776], 6.
Same read-out and setting: to `Cc1ccc(-c2cc(C(F)(F)F)nn2-c2ccc(S(N)(=O)=O)cc2)cc1` [Celecoxib] belongs 0; to `Oc1nc(-c2ccc(C(F)(F)F)cc2)nc2c1CSCC2` [XAV-939], 0; to `COc1cc(Nc2ncc(F)c(Nc3ccc4c(n3)NC(=O)C(C)(C)O4)n2)cc(OC)c1OC` [Tamatinib], 0.
On the same count and under the same terms, to `Nc1nc(Cl)nc2c1ncn2[C@H]1C[C@H](O)[C@@H](CO)O1` [Cladribine] belongs 9.8; to `O=S(=O)(c1cccc2c(O)nccc12)N1CCCNCC1` [Hydroxyfasudil], 0; to `Nc1nc(Cl)nc2c1ncn2[C@@H]1O[C@H](CO)[C@@H](O)[C@@H]1F` [Clofarabine], 22.4.

A further experiment relates to Kuramochi. The description is as above. The conditions noted are these: exposure time: 72 h; concentration range: 5 concentrations over 10,000-fold range. Summed up: as §1
With `COc1cc(N2CCN(C)CC2)ccc1Nc1nccc(-c2cn(C)c3cnccc23)n1` [AZ191], the drug sensitivity score was 1.4.
`FC(F)(F)c1ccc(CNc2ccc(Cc3c[nH]c4ncc(Cl)cc34)cn2)cn1` [Pexidartinib] came in with a drug sensitivity score of 0.6.
`CNC(=O)c1cc(Oc2ccc(NC(=O)Nc3ccc(Cl)c(C(F)(F)F)c3)c(F)c2)ccn1` [Regorafenib] had a drug sensitivity score of 1.2.
Regarding `C[C@@H]1CN(Cc2ccc(F)cc2)[C@@H](C)CN1C(=O)c1cc2c(C(=O)C(=O)N(C)C)cn(C)c2cc1Cl` [Talmapimod], the drug sensitivity score was found to be 0.
The same measure, in the same setting: to `COc1cc([C@@H]2c3cc4c(cc3[C@@H](O[C@@H]3O[C@@H]5CO[C@@H](c6cccs6)O[C@H]5[C@H](O)[C@H]3O)[C@H]3COC(=O)[C@H]23)OCO4)cc(OC)c1O` [Teniposide] belongs 0.
Molecule `COc1cc2ncnc(Nc3ccc(F)c(Cl)c3)c2cc1NC(=O)/C=C/CN1CCCCC1` [Dacomitinib] came in with a drug sensitivity score of 2.4.
The molecule `CCOCc1nc2c(N)nc3ccccc3c2n1CC(C)(C)O` [Resiquimod] yielded a drug sensitivity score of 1.2.
In turn, `Cc1ccc(C(=O)N(CCCN)[C@@H](c2oc3cc(Cl)ccc3c(=O)c2Cc2ccccc2)C(C)C)cc1` registered a drug sensitivity score of 2.9.
On the same count and under the same terms, to `CN1CCC(CNc2ccc3ncc(-c4cccc(OC(F)(F)F)c4)n3n2)CC1` [SGI-1776] belongs 5.1; to `Cc1ccc(-c2cc(C(F)(F)F)nn2-c2ccc(S(N)(=O)=O)cc2)cc1` [Celecoxib], 0.
Regarding `Oc1nc(-c2ccc(C(F)(F)F)cc2)nc2c1CSCC2` [XAV-939], the drug sensitivity score was 1.5.
Molecule `COc1cc(Nc2ncc(F)c(Nc3ccc4c(n3)NC(=O)C(C)(C)O4)n2)cc(OC)c1OC` [Tamatinib] gave a drug sensitivity score of 1.5.
Still for that read-out and setting: to `Nc1nc(Cl)nc2c1ncn2[C@H]1C[C@H](O)[C@@H](CO)O1` [Cladribine] belongs 0.
Same read-out and setting: to `O=S(=O)(c1cccc2c(O)nccc12)N1CCCNCC1` [Hydroxyfasudil] belongs 0.
Still for that read-out and setting: to `Nc1nc(Cl)nc2c1ncn2[C@@H]1O[C@H](CO)[C@@H](O)[C@@H]1F` [Clofarabine] belongs 3.
